Test results as given in article PMC11843629, “Development of ketobenzothiazole-based peptidomimetic TMPRSS13 inhibitors with low nanomolar potency” (Journal of Enzyme Inhibition and Medicinal Chemistry, 2025).
Read-outs that look alike come from different tables or passages of the source.

Legend:
furin [1] = target: T1, furin (Homo sapiens, UniProt P09958); assay: In vitro inhibition assay, furin, Boc-RVRR-AMC; format: biochemical
T1 construct: purchased R&D Systems
Method: (§1) Recombinant TMPRSS13-AFAAS-6His (this study) and matriptase[34] were expressed and purified as described. Recombinant human furin, Factor Xa (R&D Systems) and thrombin (MilliporeSigma) were obtained from commercial sources. Assays were performed in a buffer composed of 50 mM HEPES pH 7.4, 1 mM β-mercaptoethanol, 1 mM CaCl2 and 500 μg/ml BSA for furin and 50 mM HEPES pH 7.4, 150 mM NaCl and 0.1% BSA for other proteases. Assays were performed at room temperature using fluorogenic substrates (Boc-RVRR-AMC for furin and TMPRSS13, Boc-QAR-AMC for other proteases). The enzymatic activity was measured via fluorescence (excitation at 360 nm and emission at 460 nm) at room temperature using an HTX Synergy microplate reader (Agilent). Kis for TMPRSS13 and Factor Xa (FXa) were derived from IC50 dose–response curves using the Cheng-Prusoff equation[35] for reversible competitive inhibitors. For matripase, a plot of the enzyme velocity as a function of the inhibitor concentration was fitted with nonlinear regression analysis via the Morrison Ki equation[36] for competitive tight-binding inhibitors.

thrombin [2] = target: T2, thrombin (Homo sapiens, UniProt P00734); assay: In vitro inhibition assay, thrombin, Boc-QAR-AMC; format: biochemical
T2 construct: purchased MilliporeSigma
Method: as §1

WT TMPRSS13 = target: T3, WT TMPRSS13 (Homo sapiens, UniProt Q9BYE2); assay: In cellulo inhibitory activity in TMPRSS13-transfected Vero cells; format: cell-based; conditions: 24 h; for IC50: Boc-RVRR-AMC, read-out: IC50 in cellulo TMPRSS13 inhibition; for remaining activity at 10 µM: 10 µM compound, media, relative to DMSO, read-out: residual activity of TMPRSS13
T3 construct: the full length TMPRSS13 (TMPRSS13-WT); expressed in transfected cells; host or cells: Vero C1008 (Vero E6) cells
T3 sequence (Q9BYE2 326-567 isoform Q9BYE2-6 limits assumed): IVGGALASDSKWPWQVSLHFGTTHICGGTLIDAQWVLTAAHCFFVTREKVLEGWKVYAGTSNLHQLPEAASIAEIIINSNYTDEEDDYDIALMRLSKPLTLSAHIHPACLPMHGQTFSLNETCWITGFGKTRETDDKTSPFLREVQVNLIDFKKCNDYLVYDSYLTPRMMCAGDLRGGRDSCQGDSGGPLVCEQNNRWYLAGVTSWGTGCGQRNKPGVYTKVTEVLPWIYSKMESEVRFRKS
Method: Vero C1008 cells were grown in 12-well plates (200K cells per well) and transfected for 24 h via Lipofectamine 3000 (Life Technologies) with one of the following plasmids: pcDNA3.1 (empty vector, EV), pcDNA3.1-TMPRSS13 WT or pcDNA3.1-TMPRSS13-AFAAS-6His. The cells were then washed 2 times with PBS before HCell-100 medium (Wisent) containing the indicated concentrations of each compound or the control condition (0.01% DMSO) was added. After 24 h of incubation with the compounds, the medium was harvested, and 90 μL was placed in 96-well plate wells with 10 µL of 200 μM Boc-RVRR-AMC. Fluorescence was acquired at room temperature in an FLx800 TBE microplate reader, with excitation at 360 nm and emission at 460 nm. The background was then subtracted by removing the signal recorded with the cells transfected with the empty vector (pcDNA3.1). Proteolytic activity results are represented as a percentage of the DMSO-treated condition. The IC50 was calculated via nonlinear regression of the compound concentration relative to the velocity.

matriptase [3] = target: T4, matriptase (Homo sapiens, UniProt Q9Y5Y6); assay: In vitro inhibition assay, matriptase, Boc-QAR-AMC; format: biochemical; conditions: Morrison Ki equation, tight-binding
T4 construct: made in house
T4 sequence (Q9Y5Y6 1-855): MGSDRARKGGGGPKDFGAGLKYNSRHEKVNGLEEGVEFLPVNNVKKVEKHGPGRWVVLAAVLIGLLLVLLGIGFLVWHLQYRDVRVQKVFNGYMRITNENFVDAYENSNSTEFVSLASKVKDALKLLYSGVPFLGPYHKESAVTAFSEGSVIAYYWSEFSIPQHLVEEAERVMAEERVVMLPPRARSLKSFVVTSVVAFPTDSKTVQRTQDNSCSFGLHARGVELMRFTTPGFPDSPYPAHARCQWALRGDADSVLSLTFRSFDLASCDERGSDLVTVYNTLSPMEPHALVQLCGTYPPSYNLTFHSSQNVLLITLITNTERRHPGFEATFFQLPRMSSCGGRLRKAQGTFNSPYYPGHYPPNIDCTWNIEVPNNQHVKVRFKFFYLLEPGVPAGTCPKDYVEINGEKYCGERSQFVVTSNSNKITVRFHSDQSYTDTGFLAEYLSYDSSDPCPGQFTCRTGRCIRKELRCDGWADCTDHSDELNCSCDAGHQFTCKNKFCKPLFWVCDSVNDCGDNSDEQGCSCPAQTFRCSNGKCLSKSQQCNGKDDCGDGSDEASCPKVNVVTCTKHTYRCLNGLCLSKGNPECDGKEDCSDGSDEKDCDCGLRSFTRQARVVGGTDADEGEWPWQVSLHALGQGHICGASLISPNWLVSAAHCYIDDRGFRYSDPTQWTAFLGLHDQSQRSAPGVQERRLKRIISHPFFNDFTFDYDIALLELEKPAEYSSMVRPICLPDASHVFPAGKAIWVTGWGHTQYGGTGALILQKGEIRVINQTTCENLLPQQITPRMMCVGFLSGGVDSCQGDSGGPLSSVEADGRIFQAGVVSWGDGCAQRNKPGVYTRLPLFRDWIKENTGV
Method: as §1

matriptase [4] = target: T4, matriptase; design: method as in Shapira et al. 2022 Nature; conditions: ref Shapira et al. 2022 Nature; cited from earlier work
furin [5] = target: T1, furin; design: method as in Shapira et al. 2022 Nature; conditions: ref Shapira et al. 2022 Nature; cited from earlier work
thrombin [6] = target: T2, thrombin; design: method as in Shapira et al. 2022 Nature; conditions: ref Shapira et al. 2022 Nature; cited from earlier work

T1 sequence (P09958 108-794): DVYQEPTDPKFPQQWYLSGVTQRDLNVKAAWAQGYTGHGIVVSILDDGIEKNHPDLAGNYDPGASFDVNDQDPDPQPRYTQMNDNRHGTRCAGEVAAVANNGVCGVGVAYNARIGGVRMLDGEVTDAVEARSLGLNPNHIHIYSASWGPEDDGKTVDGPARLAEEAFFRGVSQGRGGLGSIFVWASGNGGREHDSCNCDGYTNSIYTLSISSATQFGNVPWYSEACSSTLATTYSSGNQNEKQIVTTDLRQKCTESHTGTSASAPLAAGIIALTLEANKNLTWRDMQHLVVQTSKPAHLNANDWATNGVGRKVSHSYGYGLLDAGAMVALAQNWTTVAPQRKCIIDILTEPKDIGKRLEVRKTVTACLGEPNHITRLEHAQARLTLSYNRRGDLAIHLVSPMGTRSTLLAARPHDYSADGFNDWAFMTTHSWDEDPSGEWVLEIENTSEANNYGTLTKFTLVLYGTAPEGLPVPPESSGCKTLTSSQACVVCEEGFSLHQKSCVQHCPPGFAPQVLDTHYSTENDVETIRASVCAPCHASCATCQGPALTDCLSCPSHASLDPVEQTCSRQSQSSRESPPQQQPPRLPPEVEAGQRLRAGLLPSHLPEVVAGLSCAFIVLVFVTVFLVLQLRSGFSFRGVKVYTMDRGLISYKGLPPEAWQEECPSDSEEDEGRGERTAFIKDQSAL

For `N=C(N)NCCCCC(=O)N[C@@H](CCC(N)=O)C(=O)N[C@@H](CCc1ccccc1)C(=O)N[C@@H](CCCNC(=N)N)C(=O)c1nc2ccccc2s1` [Compound N-0430, (H)-RQhFR-Kbt], the Ki (furin [1]) was greater than 10 µM, the Ki (thrombin [2]) was greater than 10 µM and the IC50 (WT TMPRSS13) was 0.053 µM. The remaining activity at 10 µM (WT TMPRSS13; Vero) was 9%, the Ki (matriptase [3]) was 0.00028 ± 5e-05 µM and the “Ki Matriptase” value (matriptase [3]) was “subnanomolar”.
For `N=C(N)NCCCCC(=O)N[C@@H](CCC(N)=O)C(=O)N[C@@H](Cc1ccccc1)C(=O)N[C@@H](CCCNC(=N)N)C(=O)c1nc2ccccc2s1` [Compound N-0130, (H)-RQFR-Kbt], the Ki (matriptase [4]) is listed as 0.00013 ± 3e-05 µM, the “Ki Matriptase” value (matriptase [4]) is listed as “subnanomolar” and the remaining activity at 10 µM (WT TMPRSS13) is listed as 18.4%. For the same molecule, the IC50 (WT TMPRSS13) was 0.192 µM, the Ki (furin [5]) was greater than 10 µM and the Ki (thrombin [6]) was 8.23 ± 1.55 µM.
